MIC data for four molecules are collected here from ChEMBL document CHEMBL1141432, “Mono- and Di-sesquiterpenoids from Chloranthus spicatus” (2007).

The structures appear in SMILES notation. In brackets after ≈: the same amount, converted by molar mass.

Test [1] concerns Candida albicans. Kind of test: Antifungal activity against Candida albicans by NCCLS M27-A method. It counts as functional.
Test [2] relates to Candida parapsilosis. As to the kind of experiment: Antifungal activity against Candida parapsilosis by NCCLS M27-A method. The format is functional. The note with it: Lodderomyces parapsilosis.

What is called MIC is the lowest concentration found to suppress growth. Higher therefore signals a need for much substance. For the molecule `CC1=C2C3=C4[C@@](C)(C(=O)[C@@]2(O)OC1=O)[C@@H]1C[C@@H]1[C@@]4(O)C[C@@H]1[C@]32OC(=O)C3=C2C[C@H]2[C@](O)(COC(=O)/C=C(\C)COC(=O)CCC(=O)OC3)[C@H]3C[C@@H]3[C@]12C` [CHLORAHOLOLIDE B], the MIC in test [1] and in test [2] was more than 0.157 µM in each case.
For `CC1=C2C3=C4[C@](C)([C@@H]5C[C@@H]5[C@@]4(O)C[C@@H]4[C@]35OC(=O)C3=C5C[C@H]5[C@](O)(COC(=O)/C=C(\C)COC(=O)CCC(=O)OC3)[C@H]3C[C@@H]3[C@]45C)[C@@H](O)[C@@]2(O)OC1=O` [CHLORAMULTILIDE B], the MIC in test [1] and in test [2] was 0.068 µM (≈ 0.05 µg/mL) each time.
In the case of `CC1=C2C3=C4[C@](C)([C@@H]5C[C@@H]5[C@@]4(O)C[C@@H]4[C@]35OC(=O)C3=C5C[C@H]5[C@](O)(COC(=O)/C(C)=C/COC(=O)CCC(=O)OC3)[C@H]3C[C@H]3[C@]45C)[C@@H](O)[C@@]2(O)OC1=O` [CHLORAMULTILIDE C], the MIC in test [1] and in test [2] was more than 0.157 µM throughout.
With `C/C=C(\C)C(=O)OC[C@]1(O)[C@H]2C[C@H]2[C@]2(C)[C@@H]3C[C@@]4(O)C5=C(C6=C(C)C(=O)O[C@]6(O)[C@H](O)[C@@]5(C)[C@@H]5C[C@@H]54)[C@@]34OC(=O)C(CO)=C4C[C@@H]12` [CHLORAMULTILIDE D], the MIC in test [1] and in test [2] was more than 0.157 µM in each case.
